This is an account of results in patent US8758730B2, “Compositions, use and method for the use of surface active proteins in topical drug delivery across keratin” (B.R.A.I.N. Biotechnology Research and Information Network AG, priority 2009, dated 2014).

Series [1] is classed as in vitro ADME. The text has this:
A formulation with one enhancer, Trichoderma reesei hydrophobin HFBII (isolation see […]., Aro, […]. and […]. 1997, Differential expression of the vegetative and spore-bound hydrophobins of Tricoderma reesei, Cloning and characterization of the hfb2 gene. Eur. J. […] As ethanol is a potential solvent for substances poorly soluble in water and prevents from microbiological growth, a better or a similar permeability is desirable. […] With this caffeine-concentration the solution was nearly saturated. This was intended to achieve a faster steady state according to the highest concentration gradient possible. Phosphate buffered saline (PBS) was prepared with a pH of 7.4. Both pH and osmolality of PBS simulated in the Franz diffusion cell's acceptor chamber the physiological conditions of blood (a systemic buffer system). The water used for the formulations and PBS was freshly produced, double distilled and filtered. Healthy nails for the permeability experiments were obtained from the Institute of Anatomy of the University of Basel and from the Institute of Anatomy of the University of Freiburg, Germany. […] The concentrations of the samples were measured with UV-spectrophotometry. Flux and permeation coefficients were calculated with the values after 48 hours, as in this time a steady state was obtained.

Series [2] in a line: Nail penetration study with Terbinafine (example 1a). Format: in vitro ADME. The note with it: reference solution: 10% (w/v) Terbinafine in 60% (v/v) ethanol/water, no hydrophobin; average of 3. The procedure: Healthy nails for the permeability experiments were obtained from the Institute of Anatomy of the University of Basel and from the Institute of Anatomy of the University of Freiburg, Germany. Franz Diffusion Cells (SES GmbH—Analysesysteme, Bechenheim, Germany) with a diffusion area of 0.785 cm^2 were used. […] Subsequently, they were mounted in the diffusion cells in an appropriate manner. The acceptor chamber below the nail was filled with 5 ml PBS. The formulation (400 μl) was applied onto the nail. In order to keep the temperature in the system constant, the glass cells were tempered by a water jacket kept at 32°. The acceptor chambers were stirred with a magnetic stirrer at 400 rpm. The openings for the formulations and the extensions for taking samples were covered with Parafilm (film comprising paraffin wax and polyethene; American National Can Company, USA). A sample of 400 μl was taken from each cell twice a day and replaced with the same amount of PBS warmed to 32° C. […] The concentrations of the samples were measured with UV-spectrophotometry. Flux and permeation coefficients were calculated with the values after 48 hours, as in this time a steady state was obtained. […]

The subject of series [3] is cells in the skin model (EST-1000). The series is classed as cell-based. To be noted: human, 48 h, 1 %. The procedure:
Cytotoxicity of the test samples on the skin culture was determined by MTT-assay according to the instructions of the skin model provider. The viability of the cells in the skin model was not influenced by the solvents (50% ethanol, 0.002% SDS) as compared to cultures treated with PBS only. A viability of about 50% of that of the control cultures was observed when 1% caffeine or 1% caffeine/10 μg hydrophobin (SC3 or HFB II, respectively) were applied on the skin culture, showing that hydrophobin itself was not cytotoxic at a concentration of 200 μg/ml. The barrier function of the skin model is probably not influenced profoundly by the reduced viability of the cells, since the upper layer keratinocytes comprises non living cells.

Series [4] is classed as in vitro ADME, human. The method, then:
The penetration of caffeine through the skin was measured using a human epidermal skin model (EST-1000, Cell Systems, St. Katharinen, Germany). The in vitro model for human skin consists of a robust multilayer three-dimensional cell culture, which has been grown for 14 days and has skin-like properties. The cellular structure of EST-1000 resembles that of the natural epidermis showing a base membrane, proliferating keratinocytes and stratum corneum with an intact barrier function. The tissues were provided in cell culture inserts with a polycarbonate membrane with 0.63 cm^2 surface area and 0.4 μm pore size. The membranes were covered completely by the cells and show a matte white, dry surface after complete differentiation. The inserts were handled easily by the use of a sterile forceps. Upon delivery, the skin inserts were equilibrated by placing each insert into a well of a 6-well cell culture dish containing 1 ml of maintenance medium (provided by Cell Systems). After 4-12 hours of equilibration the test substance was applied on the dry surface of the skin model. Penetration of substances applied onto the surface of the skin culture through the skin model was measured by sampling the medium surrounding the insert and detecting the concentration of the test substance, here caffeine. […] Caffeine was purchased from Sigma and applied in a concentration of 10 mg/ml (1% w/v). […]

Take `C[S+](C)[O-]` [DMSO, dimethylsulfoxide]: the “Enhancement factor (EF) in 20% (v/v) EtOH/water” value in series [1] is reported as 3.25. With `CN(C/C=C/C#CC(C)(C)C)Cc1cccc2ccccc12` [Terbinafine], in series [2], the “Cumulated amount of Terbinafine penetrated through nail after 10 days” value is recorded as about 12 mg/cm2. Consider `Cn1c(=O)c2c(ncn2C)n(C)c1=O` [caffeine], for which the “Viability relative to control cultures (MTT)” value in series [3] is “about 50%”.

B1: SC3: class I hydrophobin of 112 amino acids from Schizophyllum commune, accession P16933 (protein, UniProt P16933 25-136, looked up)
Class I hydrophobin SC3: GGHPGTTTPPVTTTVTVTTPPSTTTIAAGGTCTTGSLSCCNQVQSASSSPVTALLGLLGIVLSDLNVLVGISCSPLTVIGVGGSGCSAQTVCCENTQFNGLINIGCTPINIL
Turning to B1, in series [4], the “Enhancement of penetration of caffeine (1% w/v) through in vitro model of human skin” value is reported as “up to 21.5%”.
